In ChEMBL document CHEMBL1201862, “PubChem BioAssay data set” (2004):
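Dose response: 5 concentrations. Exposure: 48 h. Format: 96-well plates. Endpoint: linear interpolation; highest concentration if not reached. GI50 = concentration required for 50% inhibition of growth.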 The source made the active and inactive calls. No stated cut-off is given here; in the data, active = GI50 up to about 1.1 µM and inactive = higher.

Experiments:
Assay in all cases: growth of human tumour cells (NCI), 48 h
[1] = test system: BT-549
[2] = test system: T47D
[3] = test system: RPMI-8226
[4] = test system: K562
[5] = test system: EKVX
[6] = test system: HOP-62
[7] = test system: MDA-MB-435
[8] = test system: OVCAR-4
[9] = test system: UACC-257
[10] = test system: OVCAR-5
[11] = test system: DU-145
[12] = test system: HCT-15
[13] = test system: MCF7
[14] = test system: HL-60
[15] = test system: PC-3
[16] = test system: NCI-H23
[17] = test system: HCC 2998
[18] = test system: SNB-19
[19] = test system: TK-10
[20] = test system: SK-MEL-28
[21] = test system: 786-0
[22] = test system: COLO 205
[23] = test system: HT-29
[24] = test system: NCI-H226
[25] = test system: LOX IMVI
[26] = test system: U-251
[27] = test system: CCRF-CEM
[28] = test system: CAKI-1
[29] = test system: IGROV-1
[30] = test system: UACC-62
[31] = test system: MOLT-4
[32] = test system: UO-31
[33] = test system: SK-OV-3
[34] = test system: MDA-N
[35] = test system: SK-MEL-2
[36] = test system: OVCAR-3
[37] = test system: ACHN
[38] = test system: A549
[39] = test system: SK-MEL-5
[40] = test system: HCT-116
[41] = test system: SN12C
[42] = test system: Malme-3M
[43] = test system: OVCAR-8
[44] = test system: SW-620
[45] = test system: SNB-75
[46] = test system: NCI/ADR-RES
[47] = test system: MDA-MB-231
[48] = test system: KM12
[49] = test system: NCI-H522
[50] = test system: SF-295
[51] = test system: RXF 393
[52] = test system: M14
[53] = test system: NCI-H460
[54] = test system: Hs-578T
[55] = test system: SF-539
[56] = test system: SR
[57] = test system: SF-268
[58] = test system: HOP-92

Compound: C[C@]12CC[C@H]3[C@@H](CCC4=C/C(=N/OCCN5CCCCC5)CC[C@@]43C)[C@@H]1CC[C@@H]2O
- GI50 [1]: 15.4 µM (inactive)
- GI50 [2]: 28 µM (inactive)
- GI50 [3]: 10.7 µM (inactive)
- GI50 [4]: 2.75 µM (inactive)
- GI50 [5]: 27.3 µM (inactive)
- GI50 [6]: 14.1 µM (inactive)
- GI50 [7]: 7.66 µM (inactive)
- GI50 [8]: 13.9 µM (inactive)
- GI50 [9]: 17.2 µM (inactive)
- GI50 [10]: 16.1 µM (inactive)
- GI50 [11]: 21.9 µM (inactive)
- GI50 [12]: 8.04 µM
- GI50 [13]: 12 µM (inactive)
- GI50 [14]: 2.99 µM (inactive)
- GI50 [15]: 16.2 µM (inactive)
- GI50 [16]: 13.7 µM (inactive)
- GI50 [17]: 14.4 µM (inactive)
- GI50 [18]: 5.68 µM (inactive)
- GI50 [19]: 14.3 µM (inactive)
- GI50 [20]: 13.6 µM (inactive)
- GI50 [21]: 19.3 µM (inactive)
- GI50 [22]: 16.1 µM (inactive)
- GI50 [23]: 1.37 µM (inactive)
- GI50 [24]: 4.29 µM (inactive)
- GI50 [25]: 11 µM (inactive)
- GI50 [26]: 13.3 µM (inactive)
- GI50 [27]: 9.31 µM (inactive)
- GI50 [28]: 28.8 µM (inactive)
- GI50 [29]: 27.4 µM (inactive)
- GI50 [30]: > 10 µM (inactive)
- GI50 [31]: 5.81 µM (inactive)
- GI50 [32]: 12.2 µM (inactive)
- GI50 [33]: 15.2 µM (inactive)
- GI50 [34]: 15 µM (inactive)
- GI50 [35]: 14.6 µM (inactive)
- GI50 [36]: 16.3 µM (inactive)
- GI50 [37]: 20.7 µM (inactive)
- GI50 [38]: 14.4 µM (inactive)
- GI50 [39]: 8.63 µM (inactive)
- GI50 [40]: 19.3 µM (inactive)
- GI50 [41]: 17.4 µM (inactive)
- GI50 [42]: 15 µM (inactive)
- GI50 [43]: 24.1 µM (inactive)
- GI50 [44]: 13.9 µM (inactive)
- GI50 [45]: 7.26 µM (inactive)
- GI50 [46]: 16.7 µM (inactive)
- GI50 [47]: 22.2 µM (inactive)
- GI50 [48]: 10.2 µM (inactive)
- GI50 [49]: 12.2 µM (inactive)
- GI50 [50]: 13.8 µM (inactive)
- GI50 [51]: 11.8 µM (inactive)
- GI50 [52]: 8.02 µM (inactive)

Compound: O=C(O)c1cc2ccccc2c(/N=N/c2ccc(S(=O)(=O)Nc3ncccn3)cc2)c1O
- GI50 [1]: > 100 µM (inactive)
- GI50 [3]: > 100 µM (inactive)
- GI50 [4]: > 100 µM (inactive)
- GI50 [5]: > 100 µM (inactive)
- GI50 [6]: > 100 µM (inactive)
- GI50 [7]: > 100 µM (inactive)
- GI50 [8]: > 100 µM (inactive)
- GI50 [9]: > 100 µM (inactive)
- GI50 [10]: > 100 µM (inactive)
- GI50 [12]: > 100 µM
- GI50 [13]: > 100 µM (inactive)
- GI50 [14]: > 100 µM (inactive)
- GI50 [15]: > 100 µM (inactive)
- GI50 [53]: > 100 µM (inactive)
- GI50 [17]: > 100 µM (inactive)
- GI50 [18]: > 100 µM (inactive)
- GI50 [54]: > 100 µM (inactive)
- GI50 [19]: > 100 µM (inactive)
- GI50 [20]: > 100 µM (inactive)
- GI50 [21]: > 100 µM (inactive)
- GI50 [22]: > 100 µM (inactive)
- GI50 [23]: > 100 µM (inactive)
- GI50 [24]: > 100 µM (inactive)
- GI50 [26]: > 100 µM (inactive)
- GI50 [27]: > 100 µM (inactive)
- GI50 [28]: > 100 µM (inactive)
- GI50 [29]: > 100 µM (inactive)
- GI50 [30]: > 100 µM (inactive)
- GI50 [31]: > 100 µM (inactive)
- GI50 [32]: > 100 µM (inactive)
- GI50 [33]: > 100 µM (inactive)
- GI50 [35]: > 100 µM (inactive)
- GI50 [55]: > 100 µM (inactive)
- GI50 [56]: > 100 µM (inactive)
- GI50 [36]: > 100 µM (inactive)
- GI50 [37]: > 100 µM (inactive)
- GI50 [38]: > 100 µM (inactive)
- GI50 [39]: > 100 µM (inactive)
- GI50 [40]: > 100 µM (inactive)
- GI50 [42]: > 100 µM (inactive)
- GI50 [43]: > 100 µM (inactive)
- GI50 [44]: > 100 µM (inactive)
- GI50 [45]: > 100 µM (inactive)
- GI50 [46]: > 100 µM (inactive)
- GI50 [47]: > 100 µM (inactive)
- GI50 [48]: > 100 µM (inactive)
- GI50 [49]: > 100 µM (inactive)
- GI50 [50]: > 100 µM (inactive)
- GI50 [57]: > 100 µM (inactive)
- GI50 [51]: > 100 µM (inactive)
- GI50 [52]: > 100 µM (inactive)
- GI50 [58]: > 100 µM (inactive)
